According to PubChem BioAssay AID330 (DTP/NCI, 2004):
Values joined by “and” are separate entries in the source; they are usually repeats but may differ in a detail not shown here. Equal values may be shown once. Inconclusive results and toxic doses are left out. How the source made its calls: active means survival T/C of 150% or more; inactive means T/C below 125% in these data.

System: P388 leukemia ip, CD2F1 mice, survival T/C
Test: NCI In Vivo Anticancer Drug Screen. Data for tumor model P388 Leukemia (intraperitoneal) in CD2F1 (CDF1) mice
Settings: endpoint: median survival time, higher = longer survival
Method in brief: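 Mice carrying the transplanted tumor received test compound or vehicle. Survival was recorded in each group, and the value is the treated-group measurement divided by that of the vehicle-treated control group.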

[1] = dose: 50.0 mg/kg/injection, schedule: Q01DX009 (ip), vehicle: saline with Tween-80
[2] = dose: 50.0 mg/kg/injection, schedule: Q01DX005 (ip), vehicle: Klucel (hydroxypropylcellulose) (HPC)
[3] = dose: 100.0 mg/kg/injection, schedule: Q01DX005 (ip), vehicle: Klucel (hydroxypropylcellulose) (HPC)
[4] = dose: 200.0 mg/kg/injection, schedule: Q01DX005 (ip), vehicle: Klucel (hydroxypropylcellulose) (HPC)
[5] = dose: 25.0 mg/kg/injection, schedule: Q01DX009 (ip), vehicle: saline with Tween-80
[6] = dose: 100.0 mg/kg/injection, schedule: Q01DX009 (ip), vehicle: saline with Tween-80

Measured: T/C

CC(C)CCCC(C)C1CCC2C3CCC4CCC=CC4(C)C3CCC12C (configuration not stated)
inactive: dose: 30.0 mg/kg/injection, schedule: Q01DX005 (ip), vehicle: Klucel (hydroxypropylcellulose) (HPC) 93 % of control | dose: 60.0 mg/kg/injection, schedule: Q01DX005 (ip), vehicle: Klucel (hydroxypropylcellulose) (HPC) 90 % of control | dose: 120.0 mg/kg/injection, schedule: Q01DX005 (ip), vehicle: Klucel (hydroxypropylcellulose) (HPC) 90 % of control | dose: 240.0 mg/kg/injection, schedule: Q01DX005 (ip), vehicle: Klucel (hydroxypropylcellulose) (HPC) 91 % of control

CCN(CC)CCNc1ncnc(N)c1C(=C(C)C)c1ccc(Cl)cc1
inactive: [1] 87 % of control

COc1ccc2cc(N3CCCC3)ccc2c1
inactive: dose: 25.0 mg/kg/injection, schedule: Q04DX003 (ip), vehicle: saline 105 % of control | dose: 50.0 mg/kg/injection, schedule: Q04DX003 (ip), vehicle: saline 96 % of control | dose: 100.0 mg/kg/injection, schedule: Q04DX003 (ip), vehicle: saline 100 % of control and 104 % of control | dose: 400.0 mg/kg/injection, schedule: Q04DX003 (ip), vehicle: saline 107 % of control

CCCCN(CCNc1cc(OC)cc2cccnc12)C(C)CC (configuration not stated)
inactive: dose: 12.5 mg/kg/injection, schedule: Q01DX005 (ip), vehicle: saline 112 % of control | dose: 25.0 mg/kg/injection, schedule: Q01DX005 (ip), vehicle: saline 119 % of control | dose: 50.0 mg/kg/injection, schedule: Q01DX005 (ip), vehicle: saline 98 % of control and 104 % of control

OC1(c2ccccc2)C(c2ccccc2)=C(c2ccccc2)C(c2ccc(CCc3ccc(C4=C(c5ccccc5)C(O)(c5ccccc5)C(c5ccccc5)=C4c4ccccc4)cc3)cc2)=C1c1ccccc1 (configuration not stated)
inactive: dose: 6.25 mg/kg/injection, schedule: Q01DX001 (ip), vehicle: Klucel (hydroxypropylcellulose) (HPC) 105 % of control | dose: 12.5 mg/kg/injection, schedule: Q01DX001 (ip), vehicle: Klucel (hydroxypropylcellulose) (HPC) 111 % of control | dose: 25.0 mg/kg/injection, schedule: Q01DX001 (ip), vehicle: Klucel (hydroxypropylcellulose) (HPC) 90 % of control | dose: 50.0 mg/kg/injection, schedule: Q01DX001 (ip), vehicle: Klucel (hydroxypropylcellulose) (HPC) 94 % of control

NC(=S)c1cccc(-c2ccccn2)n1
inactive: dose: 100.0 mg/kg/injection, schedule: Q04DX003 (ip), vehicle: Klucel (hydroxypropylcellulose) (HPC) 102 % of control | dose: 200.0 mg/kg/injection, schedule: Q04DX003 (ip), vehicle: Klucel (hydroxypropylcellulose) (HPC) 103 % of control

CCOC(=O)/C=C(/C)Nc1ccc2c(c1)OCO2
inactive: [2] 103 % of control | [3] 110 % of control | [4] 111 % of control

O=C(NS(=O)(=O)c1ccc(Cl)cc1)c1ccccc1
inactive: dose: 12.5 mg/kg/injection, schedule: Q01DX009 (ip), vehicle: saline with Tween-80 102 % of control and 91 % of control | [5] 106 % of control | [1] 100 % of control and 94 % of control

CC(=O)CC(=O)Nc1cc(Cl)c(NC(=O)CC(C)=O)cc1Cl
inactive: dose: 100.0 mg/kg/injection, schedule: Q04DX003 (ip), vehicle: saline with Tween-80 100 % of control | dose: 200.0 mg/kg/injection, schedule: Q04DX003 (ip), vehicle: saline with Tween-80 104 % of control | dose: 400.0 mg/kg/injection, schedule: Q04DX003 (ip), vehicle: saline with Tween-80 95 % of control

C(=N\N1CCCCCC1)/c1ccc2c(c1)OCO2
inactive: [5] 90 % of control | [1] 95 % of control | [6] 90 % of control

COc1cc2c(cc1Oc1ccc(OC)c3c1CC1c4c(cc(OC)c(OC)c4-3)CCN1C)CC1c3c(cc(OC)c(OC)c3-2)CCN1C (configuration not stated)
inactive: dose: 20.0 mg/kg/injection, schedule: Q01DX009 (ip), vehicle: water 94 % of control | dose: 40.0 mg/kg/injection, schedule: Q01DX009 (ip), vehicle: water 101 % of control | dose: 80.0 mg/kg/injection, schedule: Q01DX009 (ip), vehicle: water 93 % of control | dose: 160.0 mg/kg/injection, schedule: Q01DX009 (ip), vehicle: water 93 % of control

C=C(C)C1CC=C(C)C(SCCN(CC)CC)C1 (configuration not stated)
inactive: [2] 104 % of control | [3] 109 % of control | [4] 118 % of control

O=C(O)c1ccc(O)c(C(=O)O)c1
inactive: [1] 94 % of control | [6] 94 % of control

COc1ccc(NC(=O)CCC(=O)CC(=O)c2ccncc2)cc1
inactive: dose: 60.0 mg/kg/injection, schedule: Q01DX005 (ip), vehicle: saline with Tween-80 101 % of control | dose: 120.0 mg/kg/injection, schedule: Q01DX005 (ip), vehicle: saline with Tween-80 103 % of control | dose: 240.0 mg/kg/injection, schedule: Q01DX005 (ip), vehicle: saline with Tween-80 93 % of control
